Read-outs that look alike come from different tables or passages of the source.
Tested on: extravasation in the ears of mice
Test: Extravasation (Evans Blu) induced by phlogogenic agents in the ears of mice
Format: in vivo
Details: for % inhibition of extravasation, PAF: 1 h; for % inhibition of extravasation, Zymosan: 2 h; for % inhibition of extravasation, Arachidonic Acid / % inhibition of extravasation, Bradykinin / % inhibition of extravasation, Histamine: 30 min; for ED50: OS, mouse ear
Protocol: b) Some of the compounds of the invention, such as compounds I-4, I-11 and I-31, were evaluated in vivo in a series of experimental extravasation models in which 5 μl of the preselected phlogogenic agent dissolved in physiological solution was injected intradermally into the ears of mice as described by Erdo et al., with slight modifications [Agents and Actions 39, 137-142 (1993)].
The products under test were administered orally 1 hour before the challenge and, 30 minutes before the challenge, the dye Evans Blu was injected intravenously in a dose of 100 mg/kg. The animals were killed at a time predetermined according to the test, 30 min.—2 hours after the challenge. The extravasation was evaluated by determining the quantity of dye present in the ear, extracted after homogenisation of the tissue in 2 ml of formamide and incubation at 50° C. for 2 hours. After centrifuging, the amount of dye was determined by measuring the absorption at 620 nm. The maximum % effect (% MPE) was calculated by the following formula:
[formula] in which EV is the mean absorption observed in the group of animals treated solely with the phlogogenic agent, ED is the group treated with the phlogogenic agent and the drug, and EB is the base value, that is, the value for the animals injected with physiological solution alone.
The phlogogenic agents used were:
Arachidonic acid (dissolved in EtOH); (1 mg/mouse; killed+30 min); histamine (3 nmoli/mouse; killed+30 min); PAF (30 pmoli/mouse; killed+60 min); Zymosan (10 μg/mouse; killed+120 min); bradykinin (0.6 nmoli/mouse; killed+30 min).

CCCCCNC(=S)Nc1ccc(NC(C)=N)cc1 [Compound I-4, N-[4-(N-acetamidine)phenyl]-N′-pentyl Thiourea]
% inhibition of extravasation, PAF (2.5 mg/kg OS, PAF): 41.9%
% inhibition of extravasation, Zymosan (2.5 mg/kg OS, Zymosan): 40.0%
% inhibition of extravasation, Arachidonic Acid (5 mg/kg OS): 37.8%
% inhibition of extravasation, Bradykinin (5 mg/kg OS): 30.1%
% inhibition of extravasation, Histamine (5 mg/kg OS): 17.8%
% inhibition of extravasation, PAF (5 mg/kg OS, PAF): 49.9%
% inhibition of extravasation, Zymosan (5 mg/kg OS, Zymosan): 66.6%
% inhibition of extravasation, Arachidonic Acid (10 mg/kg OS): 40.0%
% inhibition of extravasation, Bradykinin (10 mg/kg OS): 30.7%
% inhibition of extravasation, Histamine (10 mg/kg OS): 27.7%
% inhibition of extravasation, PAF (10 mg/kg OS, PAF): 55.1%
% inhibition of extravasation, Zymosan (10 mg/kg OS, Zymosan): 65.8%
% inhibition of extravasation, Arachidonic Acid (20 mg/kg OS): 52.6%
% inhibition of extravasation, Bradykinin (20 mg/kg OS): 49.1%
% inhibition of extravasation, Histamine (20 mg/kg OS): 38.8%
% inhibition of extravasation, PAF (20 mg/kg OS, PAF): 56.4%
% inhibition of extravasation, Zymosan (20 mg/kg OS, Zymosan): 83.9%
% inhibition of extravasation, Arachidonic Acid (40 mg/kg OS): 55.5%
% inhibition of extravasation, Bradykinin (40 mg/kg OS): 51.3%
% inhibition of extravasation, Histamine (40 mg/kg OS): 52.5%
% inhibition of extravasation, PAF (40 mg/kg OS, PAF): 66.2%
% inhibition of extravasation, Zymosan (40 mg/kg OS, Zymosan): 89.8%
% inhibition of extravasation, Zymosan (80 mg/kg OS, Zymosan): 95.5%
inhibition at 5 mg/kg (Mus musculus, 5 mg/kg, models other than Zymosan, read-out: mean inhibitory effect in the other extravasation models): ~35%
ED50 (PAF, read-out: ED50, extravasation induced by PAF): 6.1 mg/kg
ED50 (Zymosan, read-out: ED50, extravasation induced by Zymosan): 3.1 mg/kg
ED50 (arachidonic acid, read-out: ED50, extravasation induced by AA (arachidonic acid)): 20.5 mg/kg
ED50 (bradykinin, read-out: ED50, extravasation induced by Bradykinin): 32.6 mg/kg
ED50 (histamine, read-out: ED50, extravasation induced by Histamine): 37 mg/kg
